Reference: ChEMBL document CHEMBL5608208, “Design, synthesis of griseofamine A derivatives and development of potent antibacterial agents against MRSA” (Eur J Med Chem, 2024)
In brackets after ≈: the same amount, converted by molar mass. Activity calls are given as the source filed them. The calls are words filed in the database; no cut-off is given here.

Key:
[1] = test system: Staphylococcus aureus; test: Potency index, ratio of vancomycin MIC to test compound MIC for antibacterial activity against methicillin resistant Staphylococcus aureus ATCC 43300; assay type: functional
[2] = Acute toxicity in ICR mouse assessed as change in water intake at 2 g/kg, po measured after 7 days; assay type: organism-based; details: in vivo, 2000 mg/kg, 168 h, time 7 day
[3] = test system: Staphylococcus aureus; test: Antibacterial activity against methicillin resistant Staphylococcus aureus ATCC 33592 incubated for 18 hrs by serial two-fold dilution method; assay type: functional
[4] = test system: Cell membrane; test: Induction of bacterial cell membrane damage in methicillin resistant Staphylococcus aureus ATCC 33592 assessed as increase in fluorescence intensity at MIC incubated for 2 hrs by PI staining based microplate reader assay; assay type: cell membranes
[5] = test system: Staphylococcus aureus; test: Antibacterial activity against methicillin resistant Staphylococcus aureus ATCC 43300 incubated for 18 hrs by serial two-fold dilution method; assay type: functional
[6] = MRT(0 to infinity) in ICR mouse at 1 mg/kg, iv; assay type: ADME, organism-based; details: in vivo
[7] = test system: Staphylococcus epidermidis; test: Drug resistance development in Staphylococcus epidermidis ATCC 12228 assessed as increase in MIC value measured after 8 passages by broth microdilution method; assay type: functional
[8] = test system: Staphylococcus aureus; test: Potency index, ratio of vancomycin MIC to test compound MIC for antibacterial activity against methicillin resistant Staphylococcus aureus ATCC 33592; assay type: functional
[9] = test system: Staphylococcus aureus; test: Antibacterial activity against methicillin resistant Staphylococcus aureus ATCC 43300 infected in ICR mouse systemic infection model assessed as reduction in bacterial burden in kidney at 2.5 mg/kg, ip pretreated with bacteria for 30 mins followed by compound addition and measured for 7 days; assay type: functional, organism-based; details: time 7.0 day
[10] = test system: Staphylococcus aureus; test: Antibacterial activity against Staphylococcus aureus ATCC 29213 incubated for 18 hrs by serial two-fold dilution method; assay type: functional
[11] = test system: Staphylococcus aureus; test: Drug resistance development in Staphylococcus aureus ATCC 29213 assessed as increase in MIC value measured after 8 passages by broth microdilution method; assay type: functional
[12] = Cytotoxicity against mouse MLg cells assessed as survival rate at 23.5 ug/ml incubated for 24 hrs by MTS method; assay type: toxicity, cell-based; details: at 23.5 µg/mL, read-out: Survival
[13] = test system: Staphylococcus aureus; test: Drug resistance development in methicillin resistant Staphylococcus aureus […] assessed as increase in MIC value measured after 7 passages by broth microdilution method; assay type: functional, organism-based
[14] = test system: Staphylococcus aureus; test: Antibacterial activity against methicillin resistant Staphylococcus aureus ATCC 43300 infected in ICR mouse systemic infection model at 2.5 mg/kg, ip pretreated with bacteria for 30 mins followed by compound addition and measured for 7 days; assay type: functional; details: time 7 day
[15] = test system: Staphylococcus aureus; test: Antibacterial activity against methicillin resistant Staphylococcus aureus ATCC 43300 infected in ICR mouse systemic infection model assessed as reduction in bacterial burden in lung at 2.5 mg/kg, ip pretreated with bacteria for 30 mins followed by compound addition and measured for 7 days; assay type: functional, organism-based; details: time 7.0 day
[16] = AUC(0 to infinity) in ICR mouse at 5 mg/kg, po; assay type: ADME, organism-based; details: in vivo
[17] = test system: Staphylococcus aureus; test: Inhibition of biofilm formation in methicillin resistant Staphylococcus aureus ATCC 33592 assessed as decrease in biofilm survival rate incubated for 48 hrs by crystal violet staining based optical microscopic analysis; assay type: functional, organism-based
[18] = AUC(0 to t) in ICR mouse at 5 mg/kg, po; assay type: ADME, organism-based; details: in vivo
[19] = test system: Staphylococcus aureus; test: Antibacterial activity against methicillin resistant Staphylococcus aureus ATCC 43300 infected in ICR mouse systemic infection model assessed as reduction in bacterial burden in heart at 2.5 mg/kg, ip pretreated with bacteria for 30 mins followed by compound addition and measured for 7 days; assay type: functional, organism-based; details: time 7.0 day
[20] = test system: Staphylococcus aureus; test: Potency index, ratio of griseofamine A MIC to test compound MIC for antibacterial activity against methicillin resistant Staphylococcus aureus ATCC 33592; assay type: functional
[21] = Acute toxicity in ICR mouse assessed as change in food intake at 2 g/kg, po measured after 7 days; assay type: organism-based; details: in vivo, 2000 mg/kg, 168 h, time 7 day
[22] = test system: Staphylococcus aureus; test: Antibacterial activity against methicillin resistant Staphylococcus aureus ATCC 43300 infected in ICR mouse systemic infection model at 1.25 to 5 mg/kg, ip pretreated with bacteria for 30 mins followed by compound addition and measured for 7 days; assay type: functional; details: dose 1.25-5 mg/kg, time 7 day
[23] = test system: Staphylococcus aureus; test: Bactericidal activity against methicillin resistant Staphylococcus aureus ATCC 43300 incubated for 18 to 24 hrs; assay type: functional; details: time 18-24 hrs
[24] = Half-life in ICR mouse at 1 mg/kg, iv; assay type: ADME, organism-based; details: in vivo
[25] = test system: Staphylococcus aureus; test: Antibacterial activity against methicillin resistant Staphylococcus aureus ATCC 33592 assessed as surface collapse at MIC incubated for 1 to 6 hrs by SEM analysis; assay type: functional, organism-based; details: time 1-6 hrs
[26] = test system: Bacillus subtilis; test: Antibacterial activity against Bacillus subtilis CMCC 63501 incubated for 18 hrs by serial two-fold dilution method; assay type: functional
[27] = Clearance in ICR mouse at 5 mg/kg, po; assay type: ADME, organism-based; details: in vivo
[28] = test system: Staphylococcus epidermidis; test: Antibacterial activity against Staphylococcus epidermidis ATCC 12228 incubated for 18 hrs by serial two-fold dilution method; assay type: functional
[29] = AUC(0 to t) in ICR mouse at 1 mg/kg, iv; assay type: ADME, organism-based; details: in vivo
[30] = test system: Staphylococcus aureus; test: Antibacterial activity against methicillin resistant Staphylococcus aureus ATCC 43300 infected in ip dosed ICR mouse systemic infection model pretreated with bacteria for 30 mins followed by compound addition and measured for 7 days; assay type: functional, organism-based; details: dose 1.25-5 mg/kg, time 7.0 day
[31] = test system: Staphylococcus aureus; test: Antibacterial activity against methicillin resistant Staphylococcus aureus ATCC 43300 infected in ICR mouse systemic infection model assessed as reduction in bacterial burden in spleen at 2.5 mg/kg, ip pretreated with bacteria for 30 mins followed by compound addition and measured for 7 days; assay type: functional, organism-based; details: time 7.0 day
[32] = MRT(0 to t) in ICR mouse at 5 mg/kg, po; assay type: ADME, organism-based; details: in vivo
[33] = test system: Staphylococcus aureus; test: Bactericidal activity against methicillin resistant Staphylococcus aureus ATCC 33592 incubated for 18 to 24 hrs; assay type: functional; details: time 18-24 hrs
[34] = Cmax in ICR mouse at 1 mg/kg, iv; assay type: ADME, organism-based; details: in vivo
[35] = test system: Enterococcus faecium; test: Antibacterial activity against Enterococcus faecium ATCC 700221 incubated for 18 hrs by serial two-fold dilution method; assay type: functional
[36] = Cmax in ICR mouse at 5 mg/kg, po; assay type: ADME, organism-based; details: in vivo
[37] = Clearance in ICR mouse at 1 mg/kg, iv; assay type: ADME, organism-based; details: in vivo
[38] = Volume of distribution in ICR mouse at 5 mg/kg, po; assay type: ADME, organism-based; details: in vivo
[39] = test system: Staphylococcus aureus; test: Drug resistance development in methicillin resistant Staphylococcus aureus ATCC 43300 assessed as increase in MIC value measured after 7 passages by broth microdilution method; assay type: functional, organism-based
[40] = Acute toxicity in ICR mouse at 2 g/kg, po measured after 7 days; assay type: organism-based; details: in vivo, 2000 mg/kg, time 7 day
[41] = Tmax in ICR mouse at 1 mg/kg, iv; assay type: ADME, organism-based; details: in vivo
[42] = test system: Staphylococcus aureus; test: Potency index, ratio of griseofamine A MIC to test compound MIC for antibacterial activity against methicillin resistant Staphylococcus aureus ATCC 43300; assay type: functional
[43] = test system: Staphylococcus aureus; test: Drug resistance development in Staphylococcus aureus ATCC 29213 assessed as increase in MIC value measured after 7 passages by broth microdilution method; assay type: functional, organism-based
[44] = test system: Staphylococcus aureus; test: Drug resistance development in methicillin resistant Staphylococcus aureus ATCC 43300 assessed as increase in MIC value measured after 8 passages by broth microdilution method; assay type: functional

SMILES: C/C(O)=C1\C(=O)[C@@H]2Cc3c([nH]c4ccccc34)[C@@H](c3ccc(-c4cc(F)cc(F)c4)cc3)N2C1=O
- Ratio [1]: 8
- Activity [2]: Non-Toxic
- MIC [3]: 0.063 µg/mL (≈ 0.134 µM)
- Activity [4]: Active
- MIC [5]: 0.063 µg/mL (≈ 0.134 µM)
- MRT inf [6]: 11.1 h
- MIC [7]: 2 µg/mL
- Ratio [8]: 8
- Activity [9]: Active
- MIC [10]: 0.031 µg/mL (≈ 0.0659 µM)
- MIC [11]: 2 µg/mL
- viability at 24 h, 23.5 ug/ml [12]: > 80%
- Activity [13]: inactive
- Activity [14]: 75%
- Activity [15]: Active
- AUC(0-inf) [16]: 2570 ng·h/mL
- inhibition [17]: Dose-Dependent Effect
- AUC(0-t) [18]: 2450 ng·h/mL
- Activity [19]: Active
- Ratio [20]: 128
- Activity [21]: Non-Toxic
- Activity [22]: >50%
- MBC [23]: 1 µg/mL (≈ 2.13 µM)
- half-life [24]: 7.59 h
- Activity [25]: Active
- MIC [26]: 0.14 µg/mL (≈ 0.298 µM)
- CL/F [27]: 32.5 mL/min/kg
- MIC [28]: 0.125 µg/mL (≈ 0.266 µM)
- AUC(0-t) [29]: 4240 ng·h/mL
- Activity [30]: Dose-Dependent Effect
- Activity [31]: Active
- MRT last [32]: 10.6 h
- MBC [33]: 0.5 µg/mL (≈ 1.06 µM)
- Cmax [34]: 748 ng/mL
- MIC [35]: 0.45 µg/mL (≈ 0.956 µM)
- Cmax [36]: 233 ng/mL
- clearance [37]: 3.88 mL/min/kg
- Vd [38]: 21.714 L/kg
- Activity [39]: inactive
- LD50 at 168 h [40]: > 2000 mg/kg
- Tmax [41]: 1.8 min
- Ratio [42]: 128
- Activity [43]: inactive
- MIC [44]: 2 µg/mL
